From article PMC11876601 (Molecular Systems Biology, 2025)
Several values for one entry are separate records, joined by “and”; a condition that tells them apart may be missing. Identical values can stand only once. Like-named read-outs stand apart in the source and are kept apart here. Each block holds one compound with its values, some of them ahead of it.

Key:
[1] = test system: AsPC-1 cells; test: Cell proliferation assay, chemodrug + ATR inhibitor (Incucyte confluence, 72 h); details: for EC50: Homo sapiens;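 as to all read-outs here: underlying read-out for every value is AsPC-1 confluence after 72 h incubation at 37 °C and 5% CO2, divided by that well's starting confluence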
Description: Cells were seeded at 5000 cells/well into 96-well flat bottom plates (Eppendorf) and allowed to attach overnight. […] Cells were incubated for 72 h at 37 °C and 5% CO2. Cell confluence readouts at 72 h were either normalized to their initial confluence using the Incucyte software (AsPC-1) or used without prior normalization (all others). […] Each experiment was performed in triplicates, the data was plotted as mean ± standard deviation (s.d.).

[2] = test system: AsPC-1; test: cells; set-up: Viability of PDAC cell lines, ATPlite luminescence, 11-dose single-agent curve fit; details: Homo sapiens, ASPC1, 72 h, read-out: EC50 [nM]
Description: (§1) Afterward, small amounts were transferred to 384-well intermediate plates (Greiner Bio-One GmbH, Germany). […] For drug combination screening, 1000 to 5000 cells were seeded into 384-well plates (CulturPlate™, Perkin Elmer, MA, USA) using a Multidrop™ Combi Reagent Dispenser (Thermo Scientific, MA, USA) in 50 µl medium per well 24 h prior to drug treatment (seeding densities see Appendix Table S1). […] The final DMSO concentration in each well was 0.2%. […] Eight wells per plate without library drug served as negative controls, and sixteen wells per plate containing 5 µM Staurosporine served as positive controls. […] Next, we analyzed the drug sensitivity of immortalized duct cell line HPDE to detect effects unrelated to pancreatic cancer.

[3] = test system: BxPC-3; test: cells; set-up: Viability of PDAC cell lines, ATPlite luminescence, 11-dose single-agent curve fit; details: Homo sapiens, BXPC-3, 72 h, read-out: EC50 [nM]
Description: as §1

[4] = test system: Capan-1; test: cells; set-up: Viability of PDAC cell lines, ATPlite luminescence, 11-dose single-agent curve fit; details: Homo sapiens, CAPAN-1, 72 h, read-out: EC50 [nM]
Description: as §1

[5] = test system: Dan-G; test: cells; set-up: Viability of PDAC cell lines, ATPlite luminescence, 11-dose single-agent curve fit; details: 72 h, read-out: EC50 [nM]
Description: as §1

[6] = test system: FAMPAC; test: cells; set-up: Viability of PDAC cell lines, ATPlite luminescence, 11-dose single-agent curve fit; details: 72 h, read-out: EC50 [nM]
Description: as §1

[7] = test system: HPDE; test: cells; set-up: Viability of PDAC cell lines, ATPlite luminescence, 11-dose single-agent curve fit; details: HPDE, 72 h, read-out: EC50 [nM]
Description: as §1

[8] = test system: HuP-T4; test: cells; set-up: Viability of PDAC cell lines, ATPlite luminescence, 11-dose single-agent curve fit; details: Homo sapiens, HuP-T4, 72 h, read-out: EC50 [nM]
Description: as §1

[9] = test system: PANC-1; test: cells; set-up: Viability of PDAC cell lines, ATPlite luminescence, 11-dose single-agent curve fit; details: Homo sapiens, PANC-1, 72 h, read-out: EC50 [nM]
Description: as §1

[10] = test system: PSN-1; test: cells; set-up: Viability of PDAC cell lines, ATPlite luminescence, 11-dose single-agent curve fit; details: Homo sapiens, PSN1, 72 h, read-out: EC50 [nM]
Description: as §1

[11] = test system: PaTu-8988-T; test: cells; set-up: Viability of PDAC cell lines, ATPlite luminescence, 11-dose single-agent curve fit; details: Homo sapiens, PaTu 8988t, 72 h, read-out: EC50 [nM]
Description: as §1

[12] = test system: Suit2-07; test: cells; set-up: Viability of PDAC cell lines, ATPlite luminescence, 11-dose single-agent curve fit; details: 72 h, read-out: EC50 [nM]
Description: as §1

[13] = test system: MiaPaCa-2; test: cells; set-up: ATPlite luminescence viability of PDAC cell lines, 11-dose single-agent curves, 4-parameter fit; details: Homo sapiens, MIA PaCa-2, 72 h, read-out: EC50 [nM]
Description: as §1

[14] = test system: Colo-357; test: cells; set-up: Viability of PDAC cell lines, ATPlite luminescence, 11-dose single-agent curve fit; details: Homo sapiens, COLO357, 72 h, read-out: EC50 [nM]
Description: as §1

[15] = test system: PSN-1; test: cells; set-up: ATPlite luminescence viability of PDAC cell lines, 11-dose single-agent curves, 4-parameter fit; details: Homo sapiens, PSN1, 72 h, read-out: EC50 [nM]
Description: as §1

[16] = AsPC-1, Experiment GEM (no ATRi), single replicates R1-R3
[17] = AsPC-1, Experiment GEM+ATRi_dose1, single replicates R1-R3
[18] = AsPC-1, Experiment GEM+ATRi_dose2, single replicates R1-R3
[19] = AsPC-1, Experiment GEM+ATRi_dose3, single replicates R1-R3

- EC50 ([1]; ASPC1, 72 h, AsPC-1, Experiment GEM (no ATRi), single replicates R1-R3): 1.89 nM
- EC50 ([1]; ASPC1, 72 h, read-out: EC50 mean [nM], AsPC-1, Experiment GEM (no ATRi), mean of R1-R3, repeated in each replicate line): 2.09 nM
- EC50 ([1]; ASPC1, 72 h, read-out: pEC50, AsPC-1 (converted), Experiment GEM (no ATRi), single replicates R1-R3): 1.91 nM
- EC50 ([1]; ASPC1, read-out: EC50 mean [nM], AsPC-1, Experiment GEM (no ATRi), mean of R1-R3, repeated in each replicate line): 2.09 nM
- EC50 ([1]; ASPC1, read-out: EC50 mean [nM], AsPC-1, Experiment GEM+ATRi_dose1, mean of R1-R3, repeated in each replicate line): 2.62 nM
- EC50 ([1]; ASPC1, read-out: EC50 mean [nM], AsPC-1, Experiment GEM+ATRi_dose3, mean of R1-R3, repeated in each replicate line): 2.03 nM
SMILES: CC(=O)O[C@H]1C(=O)[C@@]2(C)[C@H]([C@H](OC(=O)c3ccccc3)[C@]3(O)C[C@H](OC(=O)[C@H](O)[C@@H](NC(=O)c4ccccc4)c4ccccc4)C(C)=C1C3(C)C)[C@]1(OC(C)=O)CO[C@@H]1C[C@@H]2O [Paclitaxel]
- Curve slope [1, 16]: 1.97 and 2.99 and 2.20
- Curve top [1, 16]: 0.44 and 0.38 and 0.36
- Curve slope [1, 17]: 1.47 and 2.08 and 1.46
- Curve top [1, 17]: 0.45 and 0.37 and 0.39
- Curve slope [1, 18]: 2.59 and 1.83 and 1.78
- Curve top [1, 18]: 0.45 and 0.38 and 0.37
- Curve bottom [1, 19]: 0.92 and 0.80
- Curve slope [1, 19]: 2.50 and 1.97 and 3.20
- Curve top [1, 19]: 0.42 and 0.35 and 0.36
- Response ([1]; chemodrug 1 nM + ATRi 3 nM): 78.95 and 82.15 and 71.41
- Response ([1]; chemodrug 1 nM + ATRi 10 nM): 76.45 and 74.25 and 74.55
- Response ([1]; chemodrug 1 nM + ATRi 30 nM): 75.55 and 68.26 and 64.62
- Response ([1]; chemodrug 1 nM alone (ATRi 0 nM)): 78.71 and 81.33 and 75.17
- Response ([1]; chemodrug 3 nM + ATRi 3 nM): 63.11 and 58.53 and 53.51
- Response ([1]; chemodrug 3 nM + ATRi 10 nM): 46.62 and 47.02 and 47.86
- Response ([1]; chemodrug 3 nM + ATRi 30 nM): 47.65 and 42.95 and 41.75
- Response ([1]; chemodrug 3 nM alone (ATRi 0 nM)): 51.76 and 52.32 and 44.31
- Response ([1]; chemodrug 10 nM + ATRi 3 nM): 44.83 and 35.01 and 34.23
- Response ([1]; chemodrug 10 nM + ATRi 10 nM): 38.43 and 33.69 and 33.51
- Response ([1]; chemodrug 10 nM + ATRi 30 nM): 39.64 and 34.49 and 30.28
- Response ([1]; chemodrug 10 nM alone (ATRi 0 nM)): 41.65 and 34.17 and 31.46
- Response ([1]; chemodrug 30 nM + ATRi 3 nM): 39.42 and 37.16 and 36.82
- Response ([1]; chemodrug 30 nM + ATRi 10 nM): 50.74 and 48.74 and 42.64
- Response ([1]; chemodrug 30 nM + ATRi 30 nM): 37.65 and 29.32 and 30.21
- Response ([1]; chemodrug 30 nM alone (ATRi 0 nM)): 37.54 and 28.80 and 29.10
- Response ([1]; chemodrug 100 nM + ATRi 3 nM): 42.23 and 38.61 and 46.44
- Response ([1]; chemodrug 100 nM + ATRi 10 nM): 39.32 and 32.95 and 29.28
- Response ([1]; chemodrug 100 nM + ATRi 30 nM): 43.96 and 36.95 and 33.77
- Response ([1]; chemodrug 100 nM alone (ATRi 0 nM)): 39.78 and 30.74 and 27.32
- Response ([1]; chemodrug 300 nM + ATRi 3 nM): 37.81 and 31.67 and 30.77
- Response ([1]; chemodrug 300 nM + ATRi 10 nM): 33.31 and 30.07 and 28.41
- Response ([1]; chemodrug 300 nM + ATRi 30 nM): 35.70 and 31.17 and 27.41
- Response ([1]; chemodrug 300 nM alone (ATRi 0 nM)): 37.36 and 36.59 and 31.62
- Response ([1]; chemodrug 1000 nM + ATRi 3 nM): 37.14 and 28.54 and 28.57
- Response ([1]; chemodrug 1000 nM + ATRi 10 nM): 36.12 and 27.22 and 30.37
- Response ([1]; chemodrug 1000 nM + ATRi 30 nM): 34.38 and 27.12 and 28.86
- Response ([1]; chemodrug 1000 nM alone (ATRi 0 nM)): 37.88 and 33.79 and 33.23
- Response ([1]; chemodrug 3000 nM + ATRi 3 nM): 36.69 and 27.57 and 27.01
- Response ([1]; chemodrug 3000 nM + ATRi 10 nM): 34.07 and 26.83 and 25.03
- Response ([1]; chemodrug 3000 nM + ATRi 30 nM): 28.21 and 28.84 and 28.63
- Response ([1]; chemodrug 3000 nM alone (ATRi 0 nM)): 33.73 and 34.70 and 28.11
- sensitization of AsPC-1 cells to the chemodrug by Elimusertib ([1]; chemodrug + three sub-EC50 doses of Elimusertib): not

- EC50 [2]: 1.63 nM
- EC50 [3]: 323 nM
- EC50 [9]: > 10000 nM
SMILES: CNC(=O)c1ccc(-c2cnc3ncc(Cc4ccc5ncccc5c4)n3n2)cc1F [Capmatinib]
- EC50 [4]: 6320 nM
- EC50 [5]: 451 nM
- EC50 [6]: 8.91 nM
- EC50 [7]: 1090 nM
- EC50 [8]: 3120 nM
- EC50 [10]: 521 nM
- EC50 [11]: > 10000 nM
- EC50 [12]: 6000 nM

- EC50 [13]: 2900 nM
- EC50 [2]: 4660 nM
- EC50 [3]: 2980 nM
- EC50 [14]: 4280 nM
- EC50 [9]: 3470 nM
SMILES: COc1ccc(CN2[C@@H]3C[C@H]2CN(c2ccc(-c4cc(OCC(C)(C)O)cn5ncc(C#N)c45)cn2)C3)cn1 [Selpercatinib]
- EC50 [4]: > 10000 nM
- EC50 [5]: 6000 nM
- EC50 [6]: > 10000 nM
- EC50 [7]: 4930 nM
- EC50 [8]: 72.1 nM
- EC50 [10]: > 10000 nM
- EC50 [11]: 543 nM
- EC50 [12]: 1160 nM

- EC50 [13]: 3920 nM
- EC50 [2]: > 10000 nM
- EC50 [3]: > 10000 nM
- EC50 [14]: 6330 nM
- EC50 [9]: 282 nM
SMILES: NC(=O)c1cnc2[nH]ccc2c1N[C@@H]1[C@@H]2CC3C[C@H]1C[C@@](O)(C3)C2 [Peficitinib]
- EC50 [15]: 6420 nM
- EC50 [4]: > 10000 nM
- EC50 [5]: 3590 nM
- EC50 [6]: > 10000 nM
- EC50 [7]: 8470 nM
- EC50 [8]: 116 nM
- EC50 [11]: > 10000 nM
- EC50 [12]: 2770 nM

- EC50 [13]: 1280 nM
- EC50 [2]: 6480 nM
- EC50 [3]: 227 nM
- EC50 [14]: 1280 nM
- EC50 [9]: > 10000 nM
SMILES: CN(C)C(=O)c1cc2cnc(Nc3ccc(N4CCNCC4)cn3)nc2n1C1CCCC1 [Ribociclib]
- EC50 [4]: 491 nM
- EC50 [5]: 3080 nM
- EC50 [6]: 401 nM
- EC50 [7]: 49.6 nM
- EC50 [8]: 1230 nM
- EC50 [10]: 2250 nM
- EC50 [11]: 9690 nM
- EC50 [12]: 985 nM

- EC50 [2]: 72.9 nM
- EC50 [3]: 333 nM
- EC50 [14]: 302 nM
- EC50 [9]: 60.8 nM
SMILES: Cc1cccc(-c2nn3c(c2-c2ccnc4ccc(C(N)=O)cc24)CCC3)n1 [Galunisertib]
- EC50 [4]: 151 nM
- EC50 [5]: 47.4 nM
- EC50 [6]: 155 nM
- EC50 [7]: 230 nM
- EC50 [8]: 1480 nM
- EC50 [10]: 0.11 nM
- EC50 [11]: 98.7 nM
- EC50 [12]: 3360 nM

- EC50 [13]: 1410 nM
- EC50 [2]: 1530 nM
- EC50 [3]: 1570 nM
- EC50 [14]: 61.4 nM
- EC50 [9]: 515 nM
SMILES: CC(C)(C)c1cc(NC(=O)Nc2ccc(-c3cn4c(n3)sc3cc(OCCN5CCOCC5)ccc34)cc2)no1 [Quizartinib]
- EC50 [4]: 1420 nM
- EC50 [5]: 932 nM
- EC50 [6]: 2490 nM
- EC50 [7]: 2670 nM
- EC50 [8]: 1020 nM
- EC50 [10]: 1470 nM
- EC50 [11]: 96.7 nM
- EC50 [12]: 155 nM

SMILES: O=C1[O][Pt]2([NH][C@@H]3CCCC[C@H]3[NH]2)[O]C1=O [Oxaliplatin]
- pEC50 [1]: 6.56
- sensitization of AsPC-1 cells to the chemodrug by Elimusertib [1]: sensitized
